From US20160060222A1, “AMINO-QUINOLINES AS KINASE INHIBITORS” (GlaxoSmithKline Intellectual Property Development Limited, priority 2011, published 2016) come the findings set out here.

Counter-ions that a name gives are not always drawn.

The target in the assay is T1, RIPK2 (Homo sapiens, UniProt O43353).
T1 construct: Full length FLAG His tagged RIPK2 was purified from a Baculovirus expression system; FLAG (N); 6His (N); made in house; host or cells: Spodoptera frugiperda (Sf9) insect cells, baculovirus
T1 sequence (O43353 whole entry): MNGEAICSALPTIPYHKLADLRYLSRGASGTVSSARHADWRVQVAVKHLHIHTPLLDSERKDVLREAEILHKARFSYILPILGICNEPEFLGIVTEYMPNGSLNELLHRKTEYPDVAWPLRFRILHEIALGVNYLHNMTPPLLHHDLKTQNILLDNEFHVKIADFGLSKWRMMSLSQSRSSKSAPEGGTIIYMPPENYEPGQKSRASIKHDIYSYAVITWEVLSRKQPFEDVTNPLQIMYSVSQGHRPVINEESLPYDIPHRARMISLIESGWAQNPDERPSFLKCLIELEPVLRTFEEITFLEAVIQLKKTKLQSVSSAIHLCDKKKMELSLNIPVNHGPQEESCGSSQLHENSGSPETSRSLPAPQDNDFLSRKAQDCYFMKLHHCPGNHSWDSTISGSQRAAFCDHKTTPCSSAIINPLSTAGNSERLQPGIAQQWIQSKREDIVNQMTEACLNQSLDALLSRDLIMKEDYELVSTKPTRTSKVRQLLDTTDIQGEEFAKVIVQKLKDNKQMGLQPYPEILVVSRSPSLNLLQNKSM
The experiment in a line: Fluorescent polarization based binding assay at the ATP binding pocket of RIPK2. The note with it: full length FLAG His tagged RIPK2; competition with fluorescently labeled ATP competitive ligand (5 nM); mean of a minimum of 2 experiments; read-out: mean pIC50 (RIP2 kinase, fluorescent polarization binding assay) (converted). The text has this: A fluorescent polarization based binding assay was developed to quantitate interaction of novel test compounds at the ATP binding pocket of RIPK2, by competition with a fluorescently labeled ATP competitive ligand. Full length FLAG His tagged RIPK2 was purified from a Baculovirus expression system and was used at a final assay concentration of twice the KDapparent. A fluorescent labeled ligand (5-({[2-({[3-({4-[(5-hydroxy-2-methylphenyl)amino]-2-pyrimidinyl}amino)phenyl]carbonyl}amino)ethyl]amino}carbonyl)-2-(6-hydroxy-3-oxo-3H-xanthen-9-yl)benzoic acid, prepared as described below) was used at a final assay concentration of 5 nM. Both the enzyme and ligand were prepared in solutions in 50 mM HEPES pH7.5, 150 mM NaCl, 10 mM MgCl2, 1 mM DTT, and 1 mM CHAPS. Test compounds were prepared in 100% DMSO and 100 nL was dispensed to individual wells of a multiwell plate. Next, 5 ul RIPK2 was added to the test compounds at twice the final assay concentration, and incubated at room temperature for 10 minutes. Following the incubation, 5 ul of the fluorescent labeled ligand solution, was added to each reaction, at twice the final assay concentration, and incubated at room temperature for at least 10 minutes. Finally, samples were read on an instrument capable of measuring fluorescent polarization. Test compound inhibition was expressed as percent (%) inhibition of internal assay controls.
For concentration response experiments, normalized data were fit and pIC50s determined using conventional techniques. For example, the following four parameter logistic equation may be used: y=A+(([…]))/(1+(10^x)/(10^C)^D), where: y is the % activity (% inhibition) at a specified compound concentration; A is the minimum % activity; B is the maximum % activity; C=log10(IC50); D=Hill slope; x=log10 (compound concentration [M]); and pIC50=(−C).
The pIC50s are averaged to determine a mean value, for a minimum of 2 experiments.
Full-length human RIPK2 (receptor-interacting serine-threonine kinase 2) cDNA was purchased from Invitrogen (Carlsbad, Calif., USA, Clone ID:10H6368, RIPK2-pENTR 221). […]
In the case of `Nc1ccc(S(=O)(=O)c2ccc3nccc(Nc4ccc5scnc5c4)c3c2)cc1` [Example 106, 6-[(4-aminophenyl)sulfonyl]-N-1,3-benzothiazol-5-yl-4-quinolinamine tetrahydrochloride], the IC50 was 126 nM.
Take `CS(=O)(=O)c1ccc2nccc(Nc3n[nH]c4cc(Cl)ccc34)c2c1` [Example 75, N-(6-chloro-1H-indazol-3-yl)-6-(methylsulfonyl)-4-quinolinamine]: the IC50 is 126 nM.
Take `CS(=O)(=O)c1ccc2nccc(Nc3ccc(O)c(F)c3)c2c1` [Example 12, 2-fluoro-4-{[6-(methylsulfonyl)-4-quinolinyl]amino}phenol]: the IC50 is 398 nM.
